The subject of test [1] is Col2. As to the kind of experiment: Cytotoxicity against human Col2 cells. In kind it is functional, cell-based.
In test [2] the target is T1, Cytochrome P450 1B1 (Homo sapiens, UniProt Q16678).
T1 sequence (Q16678 whole entry): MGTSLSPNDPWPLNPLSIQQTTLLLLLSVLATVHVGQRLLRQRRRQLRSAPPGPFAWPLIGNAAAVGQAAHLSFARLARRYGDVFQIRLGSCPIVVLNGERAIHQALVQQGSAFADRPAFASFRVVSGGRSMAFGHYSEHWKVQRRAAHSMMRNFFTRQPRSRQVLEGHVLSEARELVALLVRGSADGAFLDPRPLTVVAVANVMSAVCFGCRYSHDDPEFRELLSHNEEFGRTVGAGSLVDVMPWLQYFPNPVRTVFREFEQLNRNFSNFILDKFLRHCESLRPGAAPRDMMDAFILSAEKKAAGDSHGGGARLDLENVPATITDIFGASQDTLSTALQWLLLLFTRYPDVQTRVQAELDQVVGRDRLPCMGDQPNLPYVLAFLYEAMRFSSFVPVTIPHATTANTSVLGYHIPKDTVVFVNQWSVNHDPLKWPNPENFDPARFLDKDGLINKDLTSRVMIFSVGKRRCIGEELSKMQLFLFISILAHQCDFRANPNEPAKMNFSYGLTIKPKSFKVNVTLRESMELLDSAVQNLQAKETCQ
The experiment in a line: Inhibition of human recombinant CYP1B1 after 15 mins by 7-ethoxyresorufin-O-deethylation-based spectrofluorimetry.

For test [3], the species on record is Homo sapiens. The experiment in a line: Selectivity ratio of IC50 for human recombinant CYP1A1 to IC50 for human recombinant CYP1B1.
Test [4] is filed under the species Homo sapiens. As to the kind of experiment: Selectivity ratio of IC50 for human recombinant CYP1A2 to IC50 for human recombinant CYP1B1.
Test [5] concerns the target T2, Cytochrome P450 1A2 (Homo sapiens, UniProt P05177).
T2 sequence (P05177 whole entry): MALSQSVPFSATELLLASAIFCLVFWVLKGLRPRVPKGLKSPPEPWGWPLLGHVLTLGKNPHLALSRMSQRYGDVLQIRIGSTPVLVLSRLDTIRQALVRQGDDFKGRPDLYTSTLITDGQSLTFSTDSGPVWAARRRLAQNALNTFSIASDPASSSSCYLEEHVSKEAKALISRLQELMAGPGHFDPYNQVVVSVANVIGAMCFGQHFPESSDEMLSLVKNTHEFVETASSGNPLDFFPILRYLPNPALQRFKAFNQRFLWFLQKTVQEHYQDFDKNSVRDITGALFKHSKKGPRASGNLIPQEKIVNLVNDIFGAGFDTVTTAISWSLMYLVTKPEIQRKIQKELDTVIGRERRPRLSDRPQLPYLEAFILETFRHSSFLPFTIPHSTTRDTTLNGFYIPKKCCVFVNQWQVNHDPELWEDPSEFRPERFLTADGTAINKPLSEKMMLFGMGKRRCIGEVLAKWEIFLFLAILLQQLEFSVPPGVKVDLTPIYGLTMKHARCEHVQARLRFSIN
The experiment in a line: Inhibition of human recombinant CYP1A2 after 15 mins by 7-ethoxyresorufin-O-deethylation-based spectrofluorimetry.

Test [6] deals with T3, Cytochrome P450 1A1 (Homo sapiens, UniProt P04798).
T3 sequence (P04798 whole entry): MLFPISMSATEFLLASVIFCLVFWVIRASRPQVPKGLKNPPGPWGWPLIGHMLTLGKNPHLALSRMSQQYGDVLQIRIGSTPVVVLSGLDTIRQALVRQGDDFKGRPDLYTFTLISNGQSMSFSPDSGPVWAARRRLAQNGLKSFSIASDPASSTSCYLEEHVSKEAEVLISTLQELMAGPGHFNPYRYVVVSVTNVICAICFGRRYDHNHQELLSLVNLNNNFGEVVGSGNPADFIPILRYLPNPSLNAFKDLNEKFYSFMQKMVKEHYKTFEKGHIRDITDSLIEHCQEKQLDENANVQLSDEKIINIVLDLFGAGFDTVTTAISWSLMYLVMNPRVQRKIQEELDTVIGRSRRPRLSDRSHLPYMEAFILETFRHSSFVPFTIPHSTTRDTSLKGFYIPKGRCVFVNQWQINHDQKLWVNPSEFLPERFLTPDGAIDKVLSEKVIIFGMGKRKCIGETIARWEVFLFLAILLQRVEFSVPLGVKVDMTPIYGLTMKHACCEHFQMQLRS
As to the kind of experiment: Inhibition of human recombinant CYP1A1 after 15 mins by 7-ethoxyresorufin-O-deethylation-based spectrofluorimetry.

Converted amounts (≈) assume the structure as drawn. Bounds are passed on as bounds.

`COc1cc(/C=C/c2ccc(OC)cc2OC)cc(OC)c1` gave an IC50 in test [1] of 0.8 µg/mL (≈ 2.66 µM).
Take `COc1ccc(/C=C/c2cc(O)cc(O)c2)cc1` [RESVERATROL 4'-METHYL ETHER]: the half-maximal inhibitory concentration (IC50) in test [2] turned out to be 800 nM.
Consider `COc1ccc(/C=C/c2c(OC)cccc2OC)cc1OC`, for which the figures for the Ratio IC50 in test [3] and in test [4] were 0.74 and 7.5, respectively. Moreover, the IC50 stood at 310 nM in test [2], 2310 nM in test [5] and 230 nM in test [6].
As to `COc1ccc(/C=C/c2ccccc2)cc1OC`, the Ratio IC50 in test [3] worked out at 1.5; in test [4], 20.1. For the same compound, the 50% inhibitory concentration (IC50) worked out at 300 nM in test [2], 6040 nM in test [5] and 440 nM in test [6].
In the case of `COc1cc(O)cc(/C=C/c2ccc(O)cc2)c1`, the IC50 in test [2] is 2100 nM.
On to `COc1ccc(/C=C/c2cccc(OC)c2OC)cc1OC`, for which the Ratio IC50 in test [3] worked out at 1.2; in test [4] it was 43.3. Also, the IC50 in test [2] was determined as 370 nM; in test [5] it was 16000 nM; in test [6], 450 nM.
In the case of `COc1ccccc1/C=C/c1ccc(OC)c(OC)c1`, the figures for the Ratio IC50 in test [3] and in test [4] were 90 and 830, respectively. Besides, the IC50 in test [2] was found to be 4 nM; in test [5], 3320 nM; in test [6], 360 nM.
The corresponding values for `COc1ccc(/C=C/c2ccc(OC)c(OC)c2)c(OC)c1` are 2.4, greater than 480, 210 nM, greater than 100000 nM and 510 nM.
The corresponding values for `COc1cc(OC)c(OC)cc1/C=C/c1ccc(OC)c(OC)c1` are 0.4, greater than 22.5, 4440 nM, greater than 100000 nM and 1780 nM.
In the same order, the values of `COc1ccc(OC)c(/C=C/c2ccc(OC)c(OC)c2)c1` are 0.8, greater than 160, 620 nM, greater than 100000 nM and 500 nM.
For the compound `COc1cc(OC)c(/C=C/c2ccc(OC)c(OC)c2)c(OC)c1`, the values for the Ratio IC50 in test [3] and in test [4] were 0.9 and greater than 333, respectively. The IC50 was 300 nM in test [2], greater than 100000 nM in test [5] and 270 nM in test [6].
In the case of `COc1cc(/C=C/c2ccc(O)cc2)cc(OC)c1` [PTEROSTILBENE], the IC50 in test [2] stood at 1400 nM.
`COc1ccc(/C=C/c2ccc(OC)c(OC)c2OC)cc1OC`: the Ratio IC50 in test [3] is 1.2; in test [4] it was greater than 24. For the same compound, the IC50 in test [2] was 4170 nM; in test [5] it was greater than 100000 nM; in test [6], 5180 nM.

As a reminder, the IC50 is the point on the concentration scale where inhibition reaches its midpoint.
